Experiment [1] addresses T1, Interleukin-23 receptor (Homo sapiens, UniProt Q5VWK5).
T1 sequence (Q5VWK5 whole entry): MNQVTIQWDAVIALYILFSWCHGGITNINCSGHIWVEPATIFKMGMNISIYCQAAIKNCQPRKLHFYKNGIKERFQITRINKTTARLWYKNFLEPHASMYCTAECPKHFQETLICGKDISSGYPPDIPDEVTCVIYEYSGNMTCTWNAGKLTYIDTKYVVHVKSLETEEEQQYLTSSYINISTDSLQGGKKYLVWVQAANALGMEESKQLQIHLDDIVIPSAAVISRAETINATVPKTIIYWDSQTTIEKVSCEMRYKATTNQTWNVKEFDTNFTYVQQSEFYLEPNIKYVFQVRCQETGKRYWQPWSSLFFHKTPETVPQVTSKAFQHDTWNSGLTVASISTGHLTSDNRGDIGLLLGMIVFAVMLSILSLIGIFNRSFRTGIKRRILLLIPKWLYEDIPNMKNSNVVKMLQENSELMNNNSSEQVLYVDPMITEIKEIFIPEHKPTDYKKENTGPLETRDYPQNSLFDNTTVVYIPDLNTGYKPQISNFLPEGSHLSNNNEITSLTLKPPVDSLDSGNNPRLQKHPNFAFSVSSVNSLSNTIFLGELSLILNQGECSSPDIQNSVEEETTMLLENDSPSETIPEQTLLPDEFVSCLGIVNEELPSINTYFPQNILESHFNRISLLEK
As to the kind of experiment: Inhibition of interleukin-23 binding to human interleukin-23 receptor incubated for 2 hrs by competitive binding ELISA. Background: ELISA stands for enzyme-linked immunosorbent assay.

Experiment [2] is described as follows: Inhibition of interleukin-23 binding to rat interleukin-23 receptor incubated for 2 hrs by competitive binding ELISA.
The target of experiment [3] is T1, Interleukin-23 receptor. As to the kind of experiment: Inhibition of interleukin-23 receptor in human DB cells assessed as reduction in IL-23-stimulated STAT3 phosphorylation incubated for 30 mins by HTRF assay. The class given is cell-based. On the technique in general: TR-FRET usually uses a lanthanide donor and a delayed reading to cut background.

Seven compounds from ChEMBL document CHEMBL4417631, “Oral peptide inhibitors of interleukin-23 receptor and their use to treat inflammatory bowel diseases” (2017) can be followed below.

As usually defined, the IC50 is the midpoint of a concentration-inhibition curve.

Molecules are shown by their SMILES. *1 amine or outer side, *2 acyl side, *3 side chain or, on linkers, in order; H or OH if unused. Where a SMILES comes first, the peptide text is derived from it. Bridges are numbered along the chain shown (N, C = ends). [ ]: non-standard residue; d: D form. Abu(4-yl) = O=C([C@H](CC[*:3])N[*:1])[*:2]; 2Nal = N[C@@H](Cc1ccc2ccccc2c1)C(=O)O; AEF = NCCOc1ccc(C[C@H](N)C(=O)O)cc1; αMeK = C[C@](N)(CCCCN)C(=O)O Some results are limits rather than exact numbers.

Turning to `CC(=O)N[C@@H](CS)C(=O)N[C@@H](C)C(=O)N[C@@H](CC(=O)O)C(=O)N[C@@H](Cc1c[nH]c2ccccc12)C(=O)N[C@H](C(=O)N[C@H](C(=O)N[C@@H](Cc1ccc(O)cc1)C(=O)N[C@@H](Cc1c[nH]c2ccccc12)C(=O)N[C@@H](Cc1cnc[nH]1)C(=O)N[C@H](C(=O)N[C@@H](Cc1ccccc1)C(=O)NCC(=O)NCCOCC(=O)N[C@H](CCCCN)C(N)=O)[C@@H](C)O)C(C)(C)S)C(C)C`, the IC50 was above 30000 nM in experiment [1], 1000 to 10000 nM in experiment [2] and 100 to 1000 nM in experiment [3].

With `CC(=O)N[C@H](C(=O)N[C@@H](CCCNC(=N)N)C(=O)N[C@H](C(=O)N[C@@H](Cc1c[nH]c2ccccc12)C(=O)N[C@@H](CCC(N)=O)C(=O)N[C@H](C(=O)N[C@@H](Cc1ccc(O)cc1)C(=O)N[C@@H](Cc1c[nH]c2ccccc12)C(=O)N[C@@H](CCCNC(=N)N)C(=O)N[C@@H](CCCCN)C(=O)N[C@@H](Cc1ccccc1)C(=O)NCC(=O)NCCOCC(=O)N[C@H](CCCCN)C(N)=O)C(C)(C)S)[C@@H](C)O)C(C)(C)S`, the IC50 in experiment [1] was in the range of 100 to 1000 nM; in experiment [2] it was 100 to 1000 nM; in experiment [3], 25 to 100 nM.

For `CC(=O)N[C@H](C(=O)N[C@@H](C)C(=O)N[C@@H](CC(=O)O)C(=O)N[C@@H](Cc1c[nH]c2ccccc12)C(=O)N[C@H](C(=O)N[C@@H](CS)C(=O)N[C@@H](Cc1ccc(O)cc1)C(=O)N[C@@H](Cc1c[nH]c2ccccc12)C(=O)N[C@@H](Cc1cnc[nH]1)C(=O)N[C@H](C(=O)N[C@@H](Cc1ccccc1)C(=O)NCC(=O)NCCOCC(=O)N[C@H](CCCCN)C(N)=O)[C@@H](C)O)C(C)C)C(C)(C)S`, the results for the 50% inhibitory concentration (IC50) in experiment [1], in experiment [2] and in experiment [3] were 100 to 1000 nM, 1000 to 10000 nM and 100 to 1000 nM, respectively.

Consider `CC(=O)NCCCC[C@](C)(NC(=O)[C@H](Cc1ccc2ccccc2c1)NC(=O)[C@H](Cc1ccc(OCCNC(C)=O)cc1)NC(=O)[C@@H]1CSCC[C@H](NC(C)=O)C(=O)N[C@@H](CCC(N)=O)C(=O)N[C@@H]([C@@H](C)O)C(=O)N[C@@H](Cc2c[nH]c3ccccc23)C(=O)N[C@@H](CCC(N)=O)C(=O)N1)C(=O)N[C@@H](CCC(=O)O)C(=O)N[C@@H](CC(N)=O)C(=O)N[C@@H](CCC(N)=O)C(N)=O` (Ac-[Abu(4-yl)]QTWQC[AEF](Ac)[2Nal][αMeK](Ac)ENQ-NH2; thioether 1-6), for which the 50% inhibitory concentration (IC50) in experiment [1], in experiment [2] and in experiment [3] was below 10 nM in each case.

For `COc1ccc(C[C@H](NC(=O)[C@@H](NC(=O)[C@H](CCC(N)=O)NC(=O)[C@H](Cc2c[nH]c3ccccc23)NC(=O)[C@@H](NC(=O)[C@H](CCC(N)=O)NC(=O)[C@@H](NC(=O)Cc2ccc(F)cc2)C(C)(C)S)[C@@H](C)O)C(C)(C)S)C(=O)N[C@@H](Cc2ccc3ccccc3c2)C(=O)N[C@@](C)(CCCCN)C(=O)N[C@@H](CCCCNC(C)=O)C(=O)N[C@@H](CC(N)=O)C(=O)NCC(N)=O)cc1`, the results for the IC50 in experiment [1], in experiment [2] and in experiment [3] were 25 to 100 nM, 100 to 1000 nM and below 10 nM, respectively.

For `CC(=O)N[C@H](C(=O)N[C@@H](CN)C(=O)N[C@H](C(=O)N[C@@H](Cc1c[nH]c2ccccc12)C(=O)N[C@@H](CCC(N)=O)C(=O)N[C@H](C(=O)N[C@@H](Cc1ccc(OCCN)cc1)C(=O)N[C@@H](Cc1ccc2ccccc2c1)C(=O)N[C@@](C)(CCCCN)C(=O)N[C@@H](CCC(=O)O)C(=O)N[C@@H](CC(N)=O)C(=O)NCC(N)=O)C(C)(C)S)[C@@H](C)O)C(C)(C)S`, the IC50 in experiment [1] was below 10 nM; in experiment [2] it was 25 to 100 nM; in experiment [3] it was below 10 nM.

With `CC(=O)NCCCC[C@](C)(NC(=O)[C@H](Cc1ccc2ccccc2c1)NC(=O)[C@H](Cc1ccc(OCCNC(C)=O)cc1)NC(=O)[C@@H]1CSCC[C@H](NC(C)=O)C(=O)N[C@@H](CCC(N)=O)C(=O)N[C@@H]([C@@H](C)O)C(=O)N[C@@H](Cc2c[nH]c3ccccc23)C(=O)N[C@@H](CCC(N)=O)C(=O)N1)C(=O)N[C@@H](CCC(=O)O)C(=O)N[C@@H](CC(N)=O)C(=O)N[C@@H](CC(N)=O)C(N)=O`, the IC50 in experiment [1], in experiment [2] and in experiment [3] was below 10 nM each time.
